For orientation: IC50 means the concentration that inhibits the measured activity by half.

The structures appear in SMILES notation.

Chain of MAPKAPK2 (P49137 whole entry, species assumed): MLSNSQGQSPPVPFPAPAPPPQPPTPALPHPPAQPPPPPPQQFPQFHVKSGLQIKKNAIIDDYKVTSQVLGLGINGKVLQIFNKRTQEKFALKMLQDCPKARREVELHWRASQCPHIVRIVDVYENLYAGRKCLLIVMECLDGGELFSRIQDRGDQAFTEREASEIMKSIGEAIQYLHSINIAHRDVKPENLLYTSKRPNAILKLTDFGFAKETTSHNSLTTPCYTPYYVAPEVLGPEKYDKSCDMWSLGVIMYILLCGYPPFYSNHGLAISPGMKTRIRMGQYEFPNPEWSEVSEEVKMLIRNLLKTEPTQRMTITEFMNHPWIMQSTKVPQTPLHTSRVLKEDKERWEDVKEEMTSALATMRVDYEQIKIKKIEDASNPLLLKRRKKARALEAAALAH

The test has as its target MAPKAPK2 (Homo sapiens, UniProt P49137). Nature of the test: MK2 Enzymatic Assay. The test is classed as biochemical. The following applies: 0.5 nM MAPKAPK2, 3 μM ATP, 2 μM Ser/Thr4 peptide, 23° C., values given as concentration bins. In a few lines: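 Percent phosphorylation was derived from coumarin and fluorescein emissions relative to 0% and 100% phospho-peptide controls, read after a 120 min development step. Reactions used 2× stocks of 1 nM kinase, 4 μM peptide and 6 μM ATP; enzyme and peptide sat 20 min before a 120 min ATP reaction.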
Regarding `CNCC1CCN(c2ccc3c(c2)Cn2cc(-c4ccc(C#N)cc4)cc2-c2nnnn2-3)C1` (centres unmarked) [Compound 239, 4-(7-(3-((methylamino)methyl)pyrrolidin-1-yl)-9H-benzo[e]pyrrolo[1,2-a]tetrazolo[5,1-c] [1,4]diazepin-12-yl)benzonitrile], the IC50 is under 50 nM.
For `CN[C@H]1CCN(c2ccc3c(c2)Cn2cc(-c4ccc(F)cc4F)cc2-c2ncnn2-3)C1` [Compound 451, (S)-1-(12-(2,4-difluorophenyl)-9H-benzo[e]pyrrolo[1,2-a][1,2,4]triazolo[5,1-c][1,4]diazepin-7-yl)-N-methylpyrrolidin-3-amine], the IC50 lay in the range of 100 to 200 nM.
With `CN(C)C[C@H]1CN(c2ccc3c(c2)Cn2cc(-c4ccc(C#N)cc4)cc2-c2nccn2-3)C[C@H]1O` [Compound 128, 4-(7-((3S,4S)-3-((dimethylamino)methyl)-4-hydroxypyrrolidin-1-yl)-9H-benzo[e]imidazo[2,1-c]pyrrolo[1,2-a][1,4]diazepin-12-yl)benzonitrile] the figure was 50 to 100 nM; with `N[C@H]1CCCN(c2ccc3c(c2)Cn2cc(-c4ccc(F)cc4)cc2-c2nnnn2-3)C1` [Compound 390, (S)-1-(12-(4-fluorophenyl)-9H-benzo[e]pyrrolo[1,2-a]tetrazolo[5,1-c][1,4]diazepin-7-yl) piperidin-3-amine], 50 to 100 nM; with `CN1CC2(CCN(c3ccc4c(c3)Cn3cc(-c5ccc(F)cc5)cc3-c3nnnn3-4)C2)C1` [Compound 392, 12-(4-fluorophenyl)-7-(2-methyl-2,6-diazaspiro[3.4]octan-6-yl)-9H-benzo[e]pyrrolo[1,2-a] tetrazolo[5,1-c][1,4]diazepine], under 50 nM.
As for `N[C@@H]1CN(c2ccc3c(c2)Cn2cc(-c4ccc(F)cc4)cc2-c2ncnn2-3)C[C@H]1CO` (relative stereo) [Compound 503, (Trans-4-amino-1-(12-(4-fluorophenyl)-9H-benzo[e]pyrrolo[1,2-a][1,2,4]triazolo[5,1-c][1,4]diazepin-7-yl)pyrrolidin-3-yl)methanol], the figure is 100 to 200 nM; as for `CN(C)C[C@H]1CCN(c2ccc3c(c2)Cn2cc(-c4ccc(F)cc4)cc2-c2ncnn2-3)C1` [Compound 414, (R)-1-(1-(12-(4-fluorophenyl)-9H-benzo[e]pyrrolo[1,2-a][1,2,4]triazolo[5,1-c][1,4]diazepin-7-yl)pyrrolidin-3-yl)-N,N-dimethylmethanamine], 50 to 100 nM; as for `CN1CC2(CCN(c3cc4c(cn3)-n3ccnc3-c3cc(-c5ccc(C#N)cc5)cn3C4)C2)C1` [Compound 322, 4-(7-(2-methyl-2,6-diazaspiro[3.4]octan-6-yl)-9H-imidazo[2,1-c]pyrido[3,4-e]pyrrolo[1,2-a] [1,4]diazepin-12-yl)benzonitrile], 100 to 200 nM.
With `NC[C@H]1CCN(c2ccc3c(c2)Cn2cc(-c4ccc(F)cc4)cc2-c2ncnn2-3)C1` [Compound 496, (R)-(1-(12-(4-fluorophenyl)-9H-benzo[e]pyrrolo[1,2-a][1,2,4]triazolo[5,1-c][1,4]diazepin-7-yl)pyrrolidin-3-yl)methanamine] the figure was 50 to 100 nM.
`N#Cc1ccc(-c2cc3n(c2)Cc2cc(N4CC[C@H](CN5CCC(O)CC5)C4)ccc2-n2ccnc2-3)cc1` [Compound 143, (R)-4-(7-(3-((4-hydroxypiperidin-1-yl)methyl)pyrrolidin-1-yl)-9H-benzo[e]imidazo[2,1-c]pyrrolo[1,2-a][1,4]diazepin-12-yl)benzonitrile] came in with an IC50 of under 50 nM.
Compound `CNC[C@@H]1CCN(c2ccc3c(c2)Cn2c(cc(-c4ccc(C#N)cc4)c2Cl)-c2nncn2-3)C1` [Compound 173, (S)-4-(11-chloro-7-(3-((methylamino)methyl)pyrrolidin-1-yl)-9H-benzo[e]pyrrolo[1,2-a][1,2,4]triazolo[3,4-c][1,4]diazepin-12-yl)benzonitrile] had an IC50 of under 50 nM.
With `CN(C)C[C@@H]1CN(c2ccc3c(n2)Cn2cc(-c4ccc(F)cc4)cc2-c2nccn2-3)C[C@@H]1O` [Compound 430, (3R,4R)-4-((dimethylamino)methyl)-1-(12-(4-fluorophenyl)-9H-imidazo[2,1-c]pyrido[3,2-e]pyrrolo[1,2-a][1,4]diazepin-7-yl)pyrrolidin-3-ol] the figure was under 50 nM; with `CN[C@@H]1CCN(c2ccc3c(c2)Cn2c(cc(-c4ccc(C#N)cc4)c2Cl)-c2nncn2-3)C1` [Compound 166, (R)-4-(11-chloro-7-(3-(methylamino)pyrrolidin-1-yl)-9H-benzo[e]pyrrolo[1,2-a][1,2,4]tri-azolo[3,4-c][1,4]diazepin-12-yl)benzonitrile], 100 to 200 nM.
As for `CNC[C@H]1CN(c2ccc3c(c2)Cn2cc(-c4ccc(F)cc4)cc2-c2ncnn2-3)C[C@H]1F` (relative stereo) [Compound 501, 1-(cis-4-fluoro-1-(12-(4-fluorophenyl)-9H-benzo[e]pyrrolo[1,2-a][1,2,4]triazolo[5,1-c][1,4]diazepin-7-yl)pyrrolidin-3-yl)-N-methylmethanamine], the figure is under 50 nM.
With `C[C@@H]1c2cc(N3C[C@@H](CN(C)C)[C@H](O)C3)ccc2-n2ccnc2-c2cc(-c3ccc(F)cc3)cn21` [Compound 508, (3S,4R)-4-((dimethylamino)methyl)-1-((R)-12-(4-fluorophenyl)-9-methyl-9H-benzo[e]imidazo[2,1-c]pyrrolo[1,2-a][1,4]diazepin-7-yl)pyrrolidin-3-ol] the figure was under 50 nM; with `C[C@H](CO)NC[C@H]1CCN(c2ccc3c(c2)Cn2cc(-c4ccc(F)cc4)cc2-c2nccn2-3)C1` [Compound 355, (R)-2-((((R)-1-(12-(4-fluorophenyl)-9H-benzo[e]imidazo[2,1-c]pyrrolo[1,2-a][1,4]diazepin-7-yl)pyrrolidin-3-yl)methyl)amino)propan-1-ol], under 50 nM; with `NCCC1CCN(c2ccc3c(c2)Cn2cc(-c4ccc(F)cc4)cc2-c2nccn2-3)C1` (centres unmarked) [Compound 486, 2-(1-(12-(4-fluorophenyl)-9H-benzo[e]imidazo[2,1-c]pyrrolo[1,2-a][1,4]diazepin-7-yl)pyrrolidin-3-yl)ethanamine], under 50 nM.
For the compound `CN(C)[C@H]1CN(c2ccc3c(c2)Cn2cc(-c4ccc(F)cc4)cc2-c2ncnn2-3)C[C@@H]1O` [Compound 418, (3S,4S)-4-(dimethylamino)-1-(12-(4-fluorophenyl)-9H-benzo[e]pyrrolo[1,2-a][1,2,4]triazolo[5,1-c][1,4]diazepin-7-yl)pyrrolidin-3-ol], the half-inhibitory concentration (IC50) lay in the range of 100 to 200 nM.
With `CN(C)[C@H]1CCN(c2ccc3c(c2)Cn2cc(-c4ccc(F)cc4F)cc2-c2nncn2-3)C1` [Compound 449, (S)-1-(12-(2,4-difluorophenyl)-9H-benzo[e]pyrrolo[1,2-a][1,2,4]triazolo[3,4-c][1,4]diazepin-7-yl)-N,N-dimethylpyrrolidin-3-amine] the figure was 100 to 200 nM; with `N#Cc1ccc(-c2cc3n(c2)Cc2cc(N4CC[C@@H](CN5CCC(O)CC5)C4)ccc2-n2ccnc2-3)cc1` [Compound 142, (S)-4-(7-(3-((4-hydroxypiperidin-1-yl)methyl)pyrrolidin-1-yl)-9H-benzo[e]imidazo[2,1-c]pyrrolo[1,2-a][1,4]diazepin-12-yl)benzonitrile], under 50 nM.

Values taken from patent US10562909B2, “Fused quadracyclic compounds, compositions and uses thereof” (Tabomedex Biosciences, LLC, priority 2016, dated 2020).
